Like-named read-outs stand apart in the source and are kept apart here.

In experiment [1] the target is T1, Humicola insolens cellobiose oxidase (CBO, 92 kDa, pI 4.0) (Mycothermus thermophilus, UniProt Q9P8H5).
T1 sequence (Q9P8H5 24-785): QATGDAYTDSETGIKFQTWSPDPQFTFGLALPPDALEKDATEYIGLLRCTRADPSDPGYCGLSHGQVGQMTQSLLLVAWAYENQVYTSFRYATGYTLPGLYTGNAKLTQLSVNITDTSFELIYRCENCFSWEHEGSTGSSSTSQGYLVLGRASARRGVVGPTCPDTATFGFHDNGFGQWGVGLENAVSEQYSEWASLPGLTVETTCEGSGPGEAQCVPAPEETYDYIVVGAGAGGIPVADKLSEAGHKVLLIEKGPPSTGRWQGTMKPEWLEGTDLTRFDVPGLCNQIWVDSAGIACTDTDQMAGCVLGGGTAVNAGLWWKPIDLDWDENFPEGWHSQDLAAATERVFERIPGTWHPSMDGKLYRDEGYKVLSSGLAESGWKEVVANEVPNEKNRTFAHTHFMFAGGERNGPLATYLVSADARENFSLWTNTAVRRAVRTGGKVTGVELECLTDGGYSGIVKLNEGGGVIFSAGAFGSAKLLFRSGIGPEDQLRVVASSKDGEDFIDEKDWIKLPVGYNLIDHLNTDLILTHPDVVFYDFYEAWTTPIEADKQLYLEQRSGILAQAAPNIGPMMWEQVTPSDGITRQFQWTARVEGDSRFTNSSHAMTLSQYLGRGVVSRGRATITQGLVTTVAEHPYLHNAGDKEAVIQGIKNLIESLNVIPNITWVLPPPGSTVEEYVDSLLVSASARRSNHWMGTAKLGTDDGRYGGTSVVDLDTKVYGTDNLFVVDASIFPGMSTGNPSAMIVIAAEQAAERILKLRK
The settings on record: for kcat (electron donor): sugar + 90 μM DCPIP, mol oxidized cellobiose/s/mol enzyme; for Km: read-out: Km (electron donor), pH 7.5. The method, then:
The measurements were performed in 0.1M sodium phosphate buffer at pH 7.5 at 40° C. 450 μl of a mixture of 100 μM of 2,6-Dichlorophenol-indophenol (DCPIP, Merck), 250 μM of cellobiose (Sigma) were mixed with 50 μl enzyme. Units of activity equals μmol cellobiose oxidized (DCPIP reduced) per min.
All measurements were performed in 0.1M sodium phosphate buffer, pH 7.5, at 40° C. […] The reactions were monitored for 400 s as changes in absorbance at the appropirate wavelength (see above). […] The catalytic constants (kcat) were expressed as mol of oxidized cellobiose/s/mol of enzyme. […] The kinetic constants were determined using Lineweaver-Burke plots and were the result of dual determinations.

Experiment [2] deals with T2, CBH II (cellulase) (Humicola insolens, UniProt Q9C1S9).
T2 sequence (Q9C1S9 17-476): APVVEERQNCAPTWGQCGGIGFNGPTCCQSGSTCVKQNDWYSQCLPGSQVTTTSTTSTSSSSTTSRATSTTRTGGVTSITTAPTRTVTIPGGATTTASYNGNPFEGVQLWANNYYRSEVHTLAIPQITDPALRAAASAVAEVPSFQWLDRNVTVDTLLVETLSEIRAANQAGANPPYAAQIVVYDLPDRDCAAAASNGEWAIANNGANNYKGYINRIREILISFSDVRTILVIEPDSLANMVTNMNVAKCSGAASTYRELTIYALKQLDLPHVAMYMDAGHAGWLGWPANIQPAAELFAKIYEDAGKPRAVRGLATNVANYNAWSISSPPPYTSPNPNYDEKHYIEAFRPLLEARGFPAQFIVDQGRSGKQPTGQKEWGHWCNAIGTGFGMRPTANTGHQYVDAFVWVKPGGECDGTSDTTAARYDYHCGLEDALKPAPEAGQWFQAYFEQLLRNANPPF
Briefly: Coupled cellobiose oxidase/DCPIP assay for cellulases. It is filed as biochemical. The settings on record: for Ki: coupled CBO/DCPIP assay, read-out: KL (inhibition constant). The text has this: The ability of the cellobiose oxidase to oxidize cellodextrins by means of an electron acceptor was utilized in an assay for cellulases. […] With this assay the kinetic constants for reduced cellodextrins of 5 different cellulases have been determined (table 2). […] The enzymes show very different substrate specificity, some of them requiring quite long substrates making it impossible to use the umbelliferyl cellobiosides and lactosides available for steady state kinetic. […] The inhibition constants were determined for two cellulases using the developed assay.

For experiment [3], the target named is Endo A (cellulase). The description is as above. It is filed as biochemical. Particulars: coupled CBO/DCPIP assay. The text has this:
The ability of the cellobiose oxidase to oxidize cellodextrins by means of an electron acceptor was utilized in an assay for cellulases. By using a substrate without a reducing end, such as a reduced cellodextrin, the reducing ends formed by the hydrolysis by the cellulase will be oxidized by the CBO. Simultaneously the coloured electron acceptor, dichlorophenolindophenol (DCPIP), is reduced by cellobiose oxidase to a colourless compound making it possible to follow the reaction spectrophotometrically at 600 nm DCPIP was chosen as electron acceptor because of its high extinction coefficient.
The inhibitors methyl 4-thiocellotrioside, methyl 4-thiocellotetraoside and methyl 4-thiocellopentaoside were synthesized at the laboratory in Grenoble^5. The inhibition constants were determined for two cellulases using the developed assay.

Experiment [4] concerns Endo B (cellulase). The description is as above. It is filed as biochemical. Particulars: reduced cellodextrin substrate. The source says: (§1) The ability of the cellobiose oxidase to oxidize cellodextrins by means of an electron acceptor was utilized in an assay for cellulases. […] With this assay the kinetic constants for reduced cellodextrins of 5 different cellulases have been determined (table 2). […] The enzymes show very different substrate specificity, some of them requiring quite long substrates making it impossible to use the umbelliferyl cellobiosides and lactosides available for steady state kinetic.

Experiment [5] has as its system EG A (cellulase). Described as above. Format: biochemical. Particulars: reduced cellodextrin substrate.
Excerpt: as §1

Experiment [6] has as its system EG C (cellulase). Described as above. It is filed as biochemical. The settings on record: reduced cellodextrin substrate.
Excerpt: as §1

Experiment [7] has as its system Endo (cellulase, first line of the table). The description is as above. It is filed as biochemical. Particulars: reduced cellodextrin substrate.
Excerpt: as §1

Setting [8] is: 0.1M sodium phosphate buffer, pH 7.5, 40° C.
[9] abbreviates: read-out: KL (inhibition constant).
Where [10] appears, read: read-out: KLS (inhibition constant).

As for `OC[C@H]1O[C@@H](O[C@H]2[C@H](O)[C@@H](O)[C@H](O[C@H]3[C@H](O)[C@@H](O)[C@H](O[C@H]4[C@H](O)[C@@H](O)C(O)O[C@@H]4CO)O[C@@H]3CO)O[C@@H]2CO)[C@H](O)[C@@H](O)[C@@H]1O` (stereo partly drawn) [Cellotetraose], the “kcat (electron donor)” value in experiment [1] (setting [8]) came out at 8.5 s⁻¹.

For the compound `OC[C@H]1O[C@@H](O[C@H]2[C@H](O)[C@@H](O)[C@H](O[C@H]3[C@H](O)[C@@H](O)C(O)O[C@@H]3CO)O[C@@H]2CO)[C@H](O)[C@@H](O)[C@@H]1O` (stereo partly drawn) [Cellotriose], in experiment [1] (setting [8]), the “kcat (electron donor)” value amounted to 8.5 s⁻¹.

methyl 4-thiocellopentaoside [S-DP5]: the Ki was determined as 15 µM in experiment [2] and 35 µM in experiment [3] (setting [9]).

Regarding `CC(=O)N[C@H]1C(O)O[C@H](CO)[C@@H](O[C@@H]2O[C@H](CO)[C@H](O)[C@H](O)[C@H]2O)[C@@H]1O` (stereo partly drawn) [N-Acetyllactosamine], the “kcat (electron donor)” value in experiment [1] (setting [8]) is 0 s⁻¹.

Turning to `CC(=O)N[C@H]1[C@H](O[C@H]2[C@H](O)[C@@H](NC(C)=O)C(O)O[C@@H]2CO)O[C@H](CO)[C@@H](O)[C@@H]1O` (stereo partly drawn) [N,N-Diacetylchitobiose], the “kcat (electron donor)” value in experiment [1] (setting [8]) is 0 s⁻¹.

As to `OC[C@@H](O)[C@@H](O[C@@H]1O[C@H](CO)[C@@H](O[C@@H]2O[C@H](CO)[C@@H](O[C@@H]3O[C@H](CO)[C@@H](O[C@@H]4O[C@H](CO)[C@@H](O[C@@H]5O[C@H](CO)[C@@H](O)[C@H](O)[C@H]5O)[C@H](O)[C@H]4O)[C@H](O)[C@H]3O)[C@H](O)[C@H]2O)[C@H](O)[C@H]1O)[C@H](O)[C@@H](O)CO` [Red. DP6], the Km (in general, the concentration of substrate that gives half-maximal velocity) was 52 µM in experiment [4], 54 µM in experiment [5] and 71 µM in experiment [6]. Further, the kcat (commonly the maximal rate divided by the concentration of active sites) in experiment [4] came out at 14 s⁻¹; in experiment [5], 0.15 s⁻¹; in experiment [6], 11 s⁻¹.

Consider `OC[C@H]1OC(O)[C@H](O)[C@@H](O)[C@@H]1O` (stereo partly drawn) [Glucose], for which the “kcat (electron donor)” value in experiment [1] (setting [8]) worked out at 0 s⁻¹.

With `OC[C@@H](O)[C@@H](O[C@@H]1O[C@H](CO)[C@@H](O[C@@H]2O[C@H](CO)[C@@H](O[C@@H]3O[C@H](CO)[C@@H](O[C@@H]4O[C@H](CO)[C@@H](O)[C@H](O)[C@H]4O)[C@H](O)[C@H]3O)[C@H](O)[C@H]2O)[C@H](O)[C@H]1O)[C@H](O)[C@@H](O)CO` [Red. DP5], the Michaelis-Menten constant (Km) in experiment [7] was 14 µM; in experiment [4], 150 µM; in experiment [5], 460 µM; in experiment [6] it was 68 µM. Further, the turnover number (kcat) turned out to be 40 s⁻¹ in experiment [7], 0.86 s⁻¹ in experiment [4], 0.00 s⁻¹ in experiment [5] and 13 s⁻¹ in experiment [6].

As for `OC[C@@H](O)[C@@H](O[C@@H]1O[C@H](CO)[C@@H](O[C@@H]2O[C@H](CO)[C@@H](O[C@@H]3O[C@H](CO)[C@@H](O)[C@H](O)[C@H]3O)[C@H](O)[C@H]2O)[C@H](O)[C@H]1O)[C@H](O)[C@@H](O)CO` [Red. DP4], the results for the Michaelis-Menten constant (Km) in experiment [7], in experiment [4] and in experiment [6] were 26 µM, 1500 µM and 1600 µM, respectively. Further, the catalytic constant (kcat) in experiment [7] was determined as 29 s⁻¹; in experiment [4], 0.84 s⁻¹; in experiment [5], 0 s⁻¹; in experiment [6], 0.43 s⁻¹.

As for methyl 4-thiocellotrioside [S-DP3], the Ki stood at 1400 µM in experiment [2], 300 µM in experiment [3] (setting [9]) and 2000 µM in experiment [3] (setting [10]).

Consider `OC[C@H]1O[C@@H](O[C@H]2[C@H](O)[C@@H](O)[C@H](O[C@H]3[C@H](O)[C@@H](O)[C@H](O[C@H]4[C@H](O)[C@@H](O)[C@H](O[C@H]5[C@H](O)[C@@H](O)C(O)O[C@@H]5CO)O[C@@H]4CO)O[C@@H]3CO)O[C@@H]2CO)[C@H](O)[C@@H](O)[C@@H]1O` (stereo partly drawn) [Cellopentaose], for which the Michaelis constant (Km) in experiment [1] was found to be 17 µM. Moreover, the “kcat (electron donor)” value in experiment [1] (setting [8]) turned out to be 8.3 s⁻¹.

In the case of `OC[C@@H](O)[C@@H](O[C@@H]1O[C@H](CO)[C@@H](O[C@@H]2O[C@H](CO)[C@@H](O)[C@H](O)[C@H]2O)[C@H](O)[C@H]1O)[C@H](O)[C@@H](O)CO` [Red. DP3], the kcat was determined as 0 s⁻¹ in experiment [2] (reduced cellodextrin substrate); 0.24 s⁻¹ in experiment [7]; 0 s⁻¹ in experiment [4]; 0 s⁻¹ in experiment [5]; 0 s⁻¹ in experiment [6]. Further, the Km in experiment [7] was 500 µM.

Turning to `OC1OC[C@@H](O[C@@H]2OC[C@@H](O)[C@H](O)[C@H]2O)[C@H](O)[C@H]1O` (stereo partly drawn) [Xylobiose], the Km in experiment [1] worked out at 7100 µM. Also, the “kcat (electron donor)” value in experiment [1] (setting [8]) was determined as 2.15 s⁻¹.

Turning to `CC(C)(C)C1=CC(=O)C(=O)C(C(C)(C)C)=C1` [Benzoquinone, 3,5-di-tert-butyl-1,2-benzoquinone], the “kcat (electron acceptor)” value in experiment [1] (electron acceptor + 225 μM cellobiose, 0.1M sodium phosphate buffer, pH 7.5, 40° C.) was 15 s⁻¹.

Take methyl 4-thiocellotetraoside [S-DP4]: the Ki turned out to be 270 µM in experiment [2], 75 µM in experiment [3] (setting [9]) and 1000 µM in experiment [3] (setting [10]).
